Source: PMC6222718, “Ethylenediamine Derived Carboxamides of Betulinic and Ursolic Acid as Potential Cytotoxic Agents” (Molecules : A Journal of Synthetic Chemistry and Natural …, 2018)

What was measured:
518A2 (melanoma) = assay: SRB cytotoxicity assay, 518A2; format: cell-based, human; details: for EC50: Homo sapiens, SRB assay, 96 h of treatment, 518A2; for Selectivity index (SI) 518A2: SI = EC50 (NIH 3T3)/EC50 (518A2)
Protocol: (§1) The cytotoxicity of ursolic and betulinic carboxamides 3–30 was determined in sulforhodamine B (SRB) assays.
(§2) The cell lines used were human cancer cell lines: 518A2 (melanoma), A2780 (ovarian carcinoma), HT29 (colon adenocarcinoma), MCF-7 (breast adenocarcinoma), 8505C (thyroid carcinoma) and non-malignant mouse fibroblasts NIH 3T3. Cultures were maintained as monolayers in RPMI 1640 medium with L-glutamine (Capricorn Scientific GmbH, Ebsdorfergrund, Germany) supplemented with 10% heat inactivated fetal bovineserum (Sigma-Aldrich Chemie GmbH, Steinheim, Germany) and penicillin/streptomycin (Capricorn Scientific GmbH, Ebsdorfergrund, Germany) at 37 °C in a humidified atmosphere with 5% CO2.
(§3) The cytotoxicity of the compounds was evaluated using the sulforhodamine-B (Kiton-Red S, ABCR) micro culture colorimetric assay. Cells were seeded into 96-well plates on day 0 at appropriate cell densities to prevent confluence of the cells during the period of experiment. After 24 h, the cells were treated with 6 different concentrations (1, 3, 7, 12, 20 and 30 µM) minimum. The final concentration of DMSO/DMF never exceeded 0.5%, which was non-toxic to the cells. After a 96 h treatment, the supernatant medium from the 96-well plates was discarded, the cells were fixed with 10% trichloroacetic acid (TCA) and allowed to rest at 4 °C. After 24 h fixation, the cells were washed in a strip washer and dyed with SRB solution (100 µL, 0.4% in 1% acetic acid) for about 20 min. After dying, the plates were washed four times with 1% acetic acid to remove the excess of the dye and allowed to air-dry overnight. Tris base solution (200 µL, 10 mM) was added to each well and absorbance was measured at λ = 570 nm using a 96-well plate reader (Tecan Spectra, Crailsheim, Germany). The EC50 values were averaged from three independent experiments performed each in triplicate calculated from semi logarithmic dose response curves applying a non-linear 4P Hills-slope equation (GraphPad Prism5; variables top and bottom were set to 100 and 0, respectively).

[1] = tested on: A2780 (ovarian carcinoma); assay: SRB cytotoxicity assay, A2780; format: cell-based, human; details: for EC50: Homo sapiens, SRB assay, 96 h of treatment, A2780; for Selectivity index (SI) A2780: SI = EC50 (NIH 3T3)/EC50 (A2780)
Protocol: as §1, §2, §3

[2] = tested on: HT29 (colon adenocarcinoma); assay: SRB cytotoxicity assay, HT29; format: cell-based, human; details: for EC50: Homo sapiens, HT-29, SRB assay, 96 h of treatment, HT29; for Selectivity index (SI) HT29: SI = EC50 (NIH 3T3)/EC50 (HT29)
Protocol: as §1, §2, §3

[3] = tested on: MCF-7 (breast adenocarcinoma); assay: SRB cytotoxicity assay, MCF-7; format: cell-based, human; details: for EC50: Homo sapiens, MCF7, SRB assay, 96 h of treatment, MCF-7; for Selectivity index (SI) MCF-7: SI = EC50 (NIH 3T3)/EC50 (MCF-7)
Protocol: as §1, §2, §3

[4] = tested on: 8505C (thyroid carcinoma); assay: SRB cytotoxicity assay, 8505C; format: cell-based, human; details: for EC50: Homo sapiens, SRB assay, 96 h of treatment, 8505C; for Selectivity index (SI) 8505C: SI = EC50 (NIH 3T3)/EC50 (8505C)
Protocol: as §1, §2, §3

[5] = tested on: non-malignant mouse fibroblasts NIH 3T3; assay: SRB cytotoxicity assay, NIH 3T3; format: cell-based; details: NIH3T3, 96 h of treatment
Protocol: as §1, §2, §3

Row | Compound | EC50 (518A2 (melanoma)) | Selectivity index (SI) 518A2 (518A2 (melanoma)) | EC50 [1] | Selectivity index (SI) A2780 [1] | EC50 [2] | Selectivity index (SI) HT29 [2] | EC50 [3] | Selectivity index (SI) MCF-7 [3] | EC50 [4] | Selectivity index (SI) 8505C [4] | EC50 [5] | melting point
1 | C[C@@H]1CC[C@]2(C(=O)NCCCCN)CC[C@]3(C)C(=CCC4[C@@]5(C)CC[C@H](O)C(C)(C)C5CC[C@]43C)C2[C@H]1C (stereo partly drawn) [Compound 15, (3β)-N-(4-Aminobutyl)-3-hydroxy-urs-12-en-28-amide] | 9.3 ± 0.1 µM | 0.60 | 5.4 ± 1.4 µM | 1.04 | 2.1 ± 0.3 µM | 2.67 | 5.5 ± 1.1 µM | 1.02 | 10.8 ± 1.2 µM | 0.52 | 5.6 ± 0.3 µM | 177 to 180 °C
2 | C[C@@H]1CC[C@]2(C(=O)NCCN(C)C)CC[C@]3(C)C(=CCC4[C@@]5(C)CC[C@H](O)C(C)(C)C5CC[C@]43C)C2[C@H]1C (stereo partly drawn) [Compound 11, (3β)-N-[2-(Dimethylamino)ethyl]-3-hydroxy-urs-12-en-28-amide] | 6.6 ± 0.3 µM | 1.02 | 4.3 ± 0.5 µM | 1.56 | 3 ± 0.2 µM | 2.23 | 4.2 ± 0.9 µM | 1.60 | 7.3 ± 0.2 µM | 0.92 | 6.7 ± 1.3 µM | 270 to 273 °C (dec.)
3 | CC(=O)O[C@H]1CC[C@@]2(C)C(CC[C@]3(C)C2CC=C2C4[C@@H](C)[C@H](C)CC[C@]4(C(=O)NCCN(C)C)CC[C@]23C)C1(C)C (stereo partly drawn) [Compound 4, (3β)-N-[2-(Dimethylamino)ethyl]-3-acetyloxy-urs-12-en-28-amide] | 5.3 ± 0.4 µM | 0.70 | 3.6 ± 0.4 µM | 1.03 | 3.4 ± 0.3 µM | 1.09 | 3.3 ± 0.7 µM | 1.12 | 8.3 ± 0.7 µM | 0.45 | 3.7 ± 0.2 µM | 121 to 124 °C
4 | C=C(C)C1CC[C@]2(C(=O)NCCCCN)CC[C@]3(C)C(CCC4[C@@]5(C)CC[C@H](OC(C)=O)C(C)(C)C5CC[C@]43C)C12 (stereo partly drawn) [Compound 22, (3β)-N-(4-Aminobutyl)-3-acetyloxy-lup-20(29)-en-28-amide] | 1 ± 0.03 µM | 0.60 | 1.1 ± 0.03 µM | 0.55 | 0.6 ± 0.05 µM | 1.00 | 0.8 ± 0.04 µM | 0.75 | 1.4 ± 0.05 µM | 0.43 | 0.6 ± 0.04 µM | 133 to 135 °C
5 | CC(=O)O[C@H]1CC[C@@]2(C)C(CC[C@]3(C)C2CC=C2C4[C@@H](C)[C@H](C)CC[C@]4(C(=O)NCCN4CCCCC4)CC[C@]23C)C1(C)C (stereo partly drawn) [Compound 6, (3β)-N-(2-Piperidin-1-ylethyl)-3-acetyloxy-urs-12-en-28-amide] | 12.2 ± 0.3 µM | 0.59 | 6.5 ± 0.5 µM | 1.11 | 4.2 ± 0.5 µM | 1.71 | 6 ± 0.9 µM | 1.20 | 15.5 ± 2.7 µM | 0.46 | 7.2 ± 1.2 µM | 124 to 127 °C
6 | C=C(C)C1CC[C@]2(C(=O)NCCOCCN)CC[C@]3(C)C(CCC4[C@@]5(C)CC[C@H](OC(C)=O)C(C)(C)C5CC[C@]43C)C12 (stereo partly drawn) [Compound 23, (3β)-N-[2-(2-Aminoethoxy)ethyl]-3-acetyloxy-lup-20(29)-en-28-amide] | 1.9 ± 0.01 µM | 0.53 | 1.5 ± 0.1 µM | 0.67 | 0.4 ± 0.1 µM | 2.50 | 1.4 ± 0.2 µM | 0.71 | 2.2 ± 0.81 µM | 0.45 | 1 ± 0.1 µM | 109 to 112 °C
7 | C=C(C)C1CC[C@]2(C(=O)NCCN3CCNCC3)CC[C@]3(C)C(CCC4[C@@]5(C)CC[C@H](OC(C)=O)C(C)(C)C5CC[C@]43C)C12 (stereo partly drawn) [Compound 21, (3β)-N-(2-Piperazin-1-ylethyl)-3-acetyloxy-lup-20(29)-en-28-amide] | 2.5 ± 0.7 µM | 0.40 | 1.5 ± 0.06 µM | 0.67 | 0.6 ± 0.3 µM | 1.67 | 1.9 ± 0.1 µM | 0.53 | 1.1 ± 0.09 µM | 0.91 | 1 ± 0.05 µM | 107 to 110 °C
8 | C=C(C)C1CC[C@]2(C(=O)NCCN(C)C)CC[C@]3(C)C(CCC4[C@@]5(C)CC[C@H](OC(C)=O)C(C)(C)C5CC[C@]43C)C12 (stereo partly drawn) [Compound 18, (3β)-N-[2-(Dimethylamino)ethyl]-3-acetyloxy-lup-20(29)-en-28-amide] | 1.3 ± 0.1 µM | 0.77 | 1.1 ± 0.05 µM | 0.91 | 0.3 ± 0.02 µM | 3.33 | 1 ± 0.3 µM | 1.00 | 1.4 ± 0.15 µM | 0.71 | 1 ± 0.4 µM | 108 to 110 °C
9 | C[C@@H]1CC[C@]2(C(=O)NCCN)CC[C@]3(C)C(=CCC4[C@@]5(C)CC[C@H](O)C(C)(C)C5CC[C@]43C)C2[C@H]1C (stereo partly drawn) [Compound 10, (3β)-N-(2-Aminoethyl)-3-hydroxy-urs-12-en-28-amide] | 3.7 ± 0.5 µM | 1.05 | 3.3 ± 0.1 µM | 1.18 | 2 ± 0.1 µM | 1.95 | 3.2 ± 0.3 µM | 1.22 | 3.7 ± 0.4 µM | 1.05 | 3.9 ± 0.1 µM | 139 to 142 °C
10 | C[C@@H]1CC[C@]2(C(=O)NCCOCCN)CC[C@]3(C)C(=CCC4[C@@]5(C)CC[C@H](O)C(C)(C)C5CC[C@]43C)C2[C@H]1C (stereo partly drawn) [Compound 16] | 9.9 ± 0.2 µM | 0.76 | 6.5 ± 1.4 µM | 1.15 | 3.1 ± 0.3 µM | 2.42 | 6.3 ± 0.6 µM | 1.19 | 10.6 ± 1.1 µM | 0.71 | 7.5 ± 0.8 µM | 126 to 129 °C
